Data published in patent publication US20220274954A1, “SUBSTITUTED N-PHENYL-N-AMINOUARCILS AND SALTS THEREOF AND USE THEREOF AS HERBICIDAL AGENTS” (Bayer Aktiengesellschaft, priority 2019, published 2022).
One block for each molecule: values may come before it.

What was measured:
Format in all cases: in vivo
[1] = system: Alopecurus myosuroides; assay: Pre-emergence herbicidal action; settings: application rate 80 g/ha
From the text: (§1) Seeds of monocotyledonous and dicotyledonous weed plants and crop plants were placed in plastic or organic planting pots and covered with soil. The compounds of the invention, formulated in the form of wettable powders (WP) or as emulsion concentrates (EC), were then applied to the surface of the covering soil as aqueous suspension or emulsion with addition of 0.5% additive at a water application rate equivalent to […] (converted). After the treatment, the pots were placed in a greenhouse and kept under good growth conditions for the test plants. After about 3 weeks, the effect of the preparations was scored visually in comparison with untreated controls as percentages. For example, 100% activity=the plants have died, 0% activity=like control plants.
(§2) Tables B1 to B11 below show the effects of selected compounds of the general formula (I) according to Tables I.1 to I.34 on various harmful plants and at an application rate corresponding to 80 g/ha and less, which were obtained by the experimental procedure mentioned above.

[2] = system: Polygonum convolvulus; assay: Pre-emergence herbicidal action; settings: scored after about 3 weeks
From the text: as §1, §2

[3] = system: Veronica persica; assay: Pre-emergence herbicidal action; settings: scored after about 3 weeks
From the text: as §1, §2

[4] = system: Viola tricolor; assay: Pre-emergence herbicidal action; settings: application rate 20 g/ha, scored after about 3 weeks
From the text: as §1, §2

[5] = system: Setaria viridis; assay: Pre-emergence herbicidal action; settings: application rate 80 g/ha, scored after about 3 weeks
From the text: as §1, §2

[6] = system: Abutilon theophrasti; assay: Pre-emergence herbicidal action; settings: application rate 80 g/ha, scored after about 3 weeks
From the text: as §1, §2

[7] = system: Matricaria inodora; assay: Pre-emergence herbicidal action; settings: application rate 80 g/ha, scored after about 3 weeks
From the text: as §1, §2

[8] = system: Pharbitis purpurea; assay: Pre-emergence herbicidal action; settings: application rate 80 g/ha, scored after about 3 weeks
From the text: as §1, §2

[9] = system: Digitaria sanguinalis; assay: Pre-emergence herbicidal action; settings: application rate 80 g/ha, scored after about 3 weeks
From the text: as §1, §2

[10] = system: Echinochloa crus-galli; assay: Pre-emergence herbicidal action; settings: application rate 80 g/ha, scored after about 3 weeks
From the text: as §1, §2

[11] = system: Amaranthus retroflexus; assay: Pre-emergence herbicidal action; settings: scored after about 3 weeks
From the text: as §1, §2

[12] = system: Glycine max; assay: Pre-emergence crop plant compatibility; settings: application rate 80 g/ha
From the text: as §1
(§3) Here, the observed effects on selected crop plants are stated in comparison to the untreated controls (values in %).

[13] = system: Triticum aestivum; assay: Pre-emergence crop plant compatibility; settings: application rate 20 g/ha
From the text: as §1, §3

[14] = system: Zea mays; assay: Pre-emergence crop plant compatibility
From the text: as §1, §3

[15] = system: Brassica napus; assay: Pre-emergence crop plant compatibility; settings: application rate 20 g/ha
From the text: as §1, §3

[16] = system: Triticum aestivum; assay: Post-emergence crop plant compatibility
Summary of the method: (§4)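 Greenhouse plants in sandy loam were sprayed at the one-leaf stage, 2–3 weeks after sowing, with WP or EC formulations in water plus 0.5% additive at […]. Damage was rated visually after about 3 weeks as % versus untreated controls, where 100% means dead plants and 0% means like controls.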

[17] = system: Brassica napus; assay: Post-emergence crop plant compatibility
Summary of the method: as §4

[18] = system: Oryza sativa; assay: Post-emergence crop plant compatibility; settings: application rate 5 g/ha
Summary of the method: as §4

[19] = system: Polygonum convolvulus; assay: Post-emergence herbicidal action; settings: Fallopia convolvulus, 504 h, application rate 5 g/ha, read-out: Polygonum convolvulus (efficacy in %)
Summary of the method: (§5)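 Plants grown from seed in sandy loam in the greenhouse were sprayed at the one-leaf stage, 2 to 3 weeks after sowing, with WP or EC formulations in water plus 0.5% additive at 20 g/ha or less. Activity was rated visually after about 3 weeks against untreated controls (100% = plants died, 0% = like control).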

[20] = system: Veronica persica; assay: Post-emergence herbicidal action; settings: Veronica persica, 504 h, application rate 5 g/ha, read-out: Veronica persica (efficacy in %)
Summary of the method: as §5

[21] = system: Setaria viridis; assay: Post-emergence herbicidal action; settings: 504 h, application rate 5 g/ha, read-out: Setaria viridis (efficacy in %)
Summary of the method: as §5

[22] = system: Abutilon theophrasti; assay: Post-emergence herbicidal action; settings: Abutilon theophrasti, 504 h, application rate 5 g/ha, read-out: Abutilon theophrasti (efficacy in %)
Summary of the method: as §5

[23] = system: Matricaria inodora; assay: Post-emergence herbicidal action; settings: Tripleurospermum inodorum, 504 h, application rate 5 g/ha, read-out: Matricaria inodora (efficacy in %)
Summary of the method: as §5

[24] = system: Pharbitis purpurea; assay: Post-emergence herbicidal action; settings: Ipomoea purpurea, 504 h, application rate 5 g/ha, read-out: Pharbitis purpurea (efficacy in %)
Summary of the method: as §5

[25] = system: Polygonum convolvulus; assay: Comparative post-emergence herbicidal action (with Mero and AMS); settings: with 1.5 l/ha Mero and 2 kg/ha AMS, rated after 21 days
From the text: (§6) Seeds of mono- or dicotyledonous weed plants were sown in pots (diameter 7 cm) with sandy loam soil, germinated under optimium growth conditions and cultivated for 21 days.
(§7) The compounds, formulated in the form of wettable powders (WP) or as emulsion concentrates (EC), were sprayed onto the green parts of the plants as aqueous suspension or emulsion with addition of 1.5 l/ha Mero and 2 kg/ha AMS at a water application rate of 300 l/ha (converted).
(§8) After the test plants had been kept in the greenhouse under optimum growth conditions for 21 days, the activity of the preparations was rated visually in comparison to untreated control plants.
(§9) For example, 100% action=the plants have died and
(§10) 0% action=like control plants.
(§11) Tables C1-C3 below show the effects of a compound according to the invention (I.14-442) and a structurally related compound from WO2019/101551 (No. 16) on various harmful plants and at an application rate corresponding to 18 g/ha and less, which were obtained by the experimental procedure mentioned above.

[26] = system: Xanthium strumarium; assay: as above; settings: with 1.5 l/ha Mero and 2 kg/ha AMS, rated after 21 days
From the text: as §6, §7, §8, §9, §10, §11

[27] = system: Solanum nigrum; assay: as above; settings: with 1.5 l/ha Mero and 2 kg/ha AMS, rated after 21 days
From the text: as §6, §7, §8, §9, §10, §11

[28] = system: Glycine max; assay: Comparative post-emergence crop plant compatibility (with Mero and AMS)
From the text: as §6, §7, §8, §9, §10
(§12) Tables C4 and C5 below show the effects of a compound according to the invention (114-442) and a compound from WO2019/101551 (No. 16) on various crop plants and at an application rate corresponding to 6 g/ha and less, which were obtained by the experimental procedure mentioned above.

[29] = system: Zea mays; assay: as above
From the text: as §6, §7, §8, §9, §10, §12

Glycine max (efficacy in %) [12]: 0%
Triticum aestivum (efficacy in %) [13]: 20%
Zea mays (efficacy in %) ([14]; application rate 20 g/ha): 0%
Zea mays (efficacy in %) ([14]; application rate 80 g/ha): 20%
Brassica napus (efficacy in %) [15]: 0%
Triticum aestivum (efficacy in %) ([16]; application rate 1.25 g/ha): 10%
Triticum aestivum (efficacy in %) ([16]; application rate 5 g/ha): 20%
Brassica napus (efficacy in %) [17]: 0%
Brassica napus (efficacy in %) ([17]; application rate 5 g/ha): 20%
Oryza sativa (efficacy in %) [18]: 20%
SMILES: CCOC(=O)CCOc1ncccc1Sc1cc(-n2c(=O)cc(C(F)(F)F)n(N)c2=O)c(F)cc1Cl [I.5-442, Ethyl 3-{[3-({5-[3-amino-2,6-dioxo-4-(trifluoromethyl)-3,6-dihydropyrimidin-1(2H)-yl]-2-chloro-4-fluorophenyl}sulfanyl)pyridin-2-yl]oxy}propanoate]
Alopecurus myosuroides (efficacy in %) [1]: 80%
Polygonum convolvulus (efficacy in %) ([2]; application rate 20 g/ha): 100%
Polygonum convolvulus (efficacy in %) ([2]; application rate 80 g/ha): 100%
Veronica persica (efficacy in %) ([3]; application rate 20 g/ha): 90%
Veronica persica (efficacy in %) ([3]; application rate 80 g/ha): 100%
Viola tricolor (efficacy in %) [4]: 100%
Setaria viridis (efficacy in %) [5]: 100%
Abutilon theophrasti (efficacy in %) [6]: 100%
Matricaria inodora (efficacy in %) [7]: 90%
Pharbitis purpurea (efficacy in %) [8]: 100%
Digitaria sanguinalis (efficacy in %) [9]: 80%
Echinochloa crus-galli (efficacy in %) [10]: 80%
Amaranthus retroflexus (efficacy in %) ([11]; application rate 20 g/ha): 100%
Amaranthus retroflexus (efficacy in %) ([11]; application rate 80 g/ha): 100%
pest or weed control at 5 g/ha [19]: 100%
pest or weed control at 5 g/ha [20]: 100%
pest or weed control at 5 g/ha [21]: 90%
pest or weed control at 5 g/ha [22]: 100%
pest or weed control at 5 g/ha [23]: 80%
pest or weed control at 5 g/ha [24]: 100%

Glycine max (efficacy in %) ([28]; application rate 2 g/ha): 40%
Glycine max (efficacy in %) ([28]; application rate 6 g/ha): 50%
Zea mays (efficacy in %) ([29]; application rate 2 g/ha): 40%
Zea mays (efficacy in %) ([29]; application rate 6 g/ha): 50%
SMILES: CCOC(=O)COc1ncccc1Oc1cc(-n2c(=O)c(C)c(C(F)(F)F)n(C)c2=O)c(F)cc1Cl [No. 16]
Polygonum convolvulus (efficacy in %) ([25]; application rate 6 g/ha): 65%
Polygonum convolvulus (efficacy in %) ([25]; application rate 18 g/ha): 75%
Xanthium strumarium (efficacy in %) ([26]; application rate 6 g/ha): 50%
Xanthium strumarium (efficacy in %) ([26]; application rate 18 g/ha): 85%
Solanum nigrum (efficacy in %) ([27]; application rate 6 g/ha): 80%
Solanum nigrum (efficacy in %) ([27]; application rate 18 g/ha): 80%
